“And” between values parts separate entries of the source, which are not always exact repeats. Identical values can stand only once. Inconclusive results and toxic doses are left out. No stated cut-off is given here; in the data, active means T/C of 150% or more; inactive means T/C below 125%.
Tested on: L1210 leukemia ip in BDF1 mice, survival T/C
Assay: NCI In Vivo Anticancer Drug Screen. Data for tumor model L1210 Leukemia (intraperitoneal) in B6D2F1 (BDF1) mice
Settings: endpoint: mean survival time, higher = longer survival
Outline: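 Tumor was transplanted into mice, which were then dosed with test compound or vehicle alone. Survival was recorded for each group, and the treated figure was expressed relative to the control figure.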

[1] = dose: 100.0 mg/kg/injection, schedule: Q04DX003 (ip), vehicle: saline with Tween-80
[2] = dose: 200.0 mg/kg/injection, schedule: Q04DX003 (ip), vehicle: saline with Tween-80
[3] = dose: 400.0 mg/kg/injection, schedule: Q04DX003 (ip), vehicle: saline with Tween-80
[4] = dose: 100.0 mg/kg/injection, schedule: Q01DX009 (ip), vehicle: saline sonified
[5] = dose: 200.0 mg/kg/injection, schedule: Q01DX009 (ip), vehicle: saline sonified
[6] = dose: 400.0 mg/kg/injection, schedule: Q01DX009 (ip), vehicle: saline sonified
[7] = dose: 25.0 mg/kg/injection, schedule: Q01DX009 (ip), vehicle: saline with Tween-80
[8] = dose: 50.0 mg/kg/injection, schedule: Q01DX009 (ip), vehicle: saline with Tween-80
[9] = dose: 50.0 mg/kg/injection, schedule: Q04DX002 (ip), vehicle: saline with Tween-80
[10] = dose: 100.0 mg/kg/injection, schedule: Q04DX002 (ip), vehicle: saline with Tween-80
[11] = dose: 100.0 mg/kg/injection, schedule: Q04DX003 (ip), vehicle: Klucel (hydroxypropylcellulose) (HPC)
[12] = dose: 100.0 mg/kg/injection, schedule: Q01DX001 (ip), vehicle: Klucel (hydroxypropylcellulose) (HPC)
[13] = dose: 200.0 mg/kg/injection, schedule: Q01DX001 (ip), vehicle: Klucel (hydroxypropylcellulose) (HPC)
[14] = dose: 100.0 mg/kg/injection, schedule: Q01DX009 (ip), vehicle: Klucel (hydroxypropylcellulose) (HPC)
[15] = dose: 200.0 mg/kg/injection, schedule: Q01DX009 (ip), vehicle: Klucel (hydroxypropylcellulose) (HPC)
[16] = dose: 400.0 mg/kg/injection, schedule: Q01DX009 (ip), vehicle: Klucel (hydroxypropylcellulose) (HPC)
[17] = dose: 200.0 mg/kg/injection, schedule: Q04DX003 (ip), vehicle: Klucel (hydroxypropylcellulose) (HPC)
[18] = dose: 400.0 mg/kg/injection, schedule: Q04DX003 (ip), vehicle: Klucel (hydroxypropylcellulose) (HPC)
[19] = dose: 400.0 mg/kg/injection, schedule: Q01DX001 (ip), vehicle: Klucel (hydroxypropylcellulose) (HPC)

Measured: T/C

COc1ccc(NC(=O)Nc2cc(Cl)ccc2Cl)cc1
inactive: [1] 90 % of control | [2] 92 % of control | [3] 92 % of control

CC12OC(=O)CC1CC(=O)O2 (stereo unspecified)
inactive: dose: 100.0 mg/kg/injection, schedule: Q01DX001 (ip), vehicle: saline sonified 101 % of control | [4] 109 % of control | dose: 200.0 mg/kg/injection, schedule: Q01DX001 (ip), vehicle: saline sonified 95 % of control | [5] 105 % of control | dose: 400.0 mg/kg/injection, schedule: Q01DX001 (ip), vehicle: saline sonified 92 % of control | [6] 102 % of control

CCS[P+](NC1CCCCC1)(NC1CCCCC1)NC1CCCCC1
inactive: [7] 94 % of control | dose: 25.0 mg/kg/injection, schedule: Q04DX002 (ip), vehicle: saline with Tween-80 103 % of control | [8] 100 % of control | [9] 98 % of control | [10] 88 % of control

O=C1NC(=O)C2(CCCCCC2)N1
inactive: [8] 101 % of control | dose: 50.0 mg/kg/injection, schedule: Q04DX003 (ip), vehicle: saline with Tween-80 105 % of control | [4] 90 % of control | dose: 100.0 mg/kg/injection, schedule: Q01DX009 (ip), vehicle: saline with Tween-80 101 % of control | [1] 99 % of control and 111 % of control | [5] 96 % of control | dose: 200.0 mg/kg/injection, schedule: Q01DX009 (ip), vehicle: saline with Tween-80 98 % of control | [2] 100 % of control and 110 % of control | [6] 98 % of control | [3] 106 % of control

CC1(O)CSC(C)(O)CS1 (stereo unspecified)
inactive: [9] 98 % of control | [10] 88 % of control

O=C1c2ccccc2C[CH]1[Hg][Cl] (stereo unspecified)
inactive: dose: 5.0 mg/kg/injection, schedule: Q01DX001 (ip), vehicle: saline 103 % of control | dose: 10.0 mg/kg/injection, schedule: Q01DX001 (ip), vehicle: saline 102 % of control

ClCc1ccc(CCl)c(Cl)c1
inactive: dose: 25.0 mg/kg/injection, schedule: Q04DX003 (ip), vehicle: Klucel (hydroxypropylcellulose) (HPC) 86 % of control | dose: 50.0 mg/kg/injection, schedule: Q04DX003 (ip), vehicle: Klucel (hydroxypropylcellulose) (HPC) 97 % of control | [11] 94 % of control

Nc1nccnc1C(=O)NOCc1ccccc1
inactive: dose: 25.0 mg/kg/injection, schedule: Q04DX002 (ip), vehicle: Klucel (hydroxypropylcellulose) (HPC) 90 % of control | dose: 50.0 mg/kg/injection, schedule: Q04DX002 (ip), vehicle: Klucel (hydroxypropylcellulose) (HPC) 90 % of control | dose: 100.0 mg/kg/injection, schedule: Q04DX002 (ip), vehicle: Klucel (hydroxypropylcellulose) (HPC) 101 % of control and 111 % of control | dose: 200.0 mg/kg/injection, schedule: Q04DX002 (ip), vehicle: Klucel (hydroxypropylcellulose) (HPC) 105 % of control | dose: 400.0 mg/kg/injection, schedule: Q04DX002 (ip), vehicle: Klucel (hydroxypropylcellulose) (HPC) 96 % of control and 97 % of control

CCOC(=O)c1ccc(N(CC(O)CN)S(=O)(=O)c2ccc(C)cc2)cc1 (stereo unspecified)
inactive: [7] 100 % of control | [8] 95 % of control

COS(=O)c1ccccc1C(=O)NOCc1ccccc1 (stereo unspecified)
inactive: dose: 50.0 mg/kg/injection, schedule: Q01DX001 (ip), vehicle: Klucel (hydroxypropylcellulose) (HPC) 103 % of control | [12] 100 % of control | [13] 107 % of control

Nc1ccc(C(=O)O)c([N+](=O)[O-])c1
inactive: dose: 100.0 mg/kg/injection, schedule: Q01DX009 (ip), vehicle: saline 102 % of control | dose: 100.0 mg/kg/injection, schedule: Q04DX003 (ip), vehicle: saline 98 % of control | dose: 200.0 mg/kg/injection, schedule: Q01DX009 (ip), vehicle: saline 100 % of control | dose: 200.0 mg/kg/injection, schedule: Q04DX003 (ip), vehicle: saline 93 % of control | dose: 400.0 mg/kg/injection, schedule: Q01DX009 (ip), vehicle: saline 100 % of control | dose: 400.0 mg/kg/injection, schedule: Q04DX003 (ip), vehicle: saline 94 % of control

O=C1c2ccccc2CCCC1N1CCOCC1 (stereo unspecified)
inactive: [1] 95 % of control | [2] 94 % of control | [3] 87 % of control

O=C(NCCCCCCNC(=O)Nc1ccccc1F)Nc1ccccc1F
inactive: [14] 100 % of control | [15] 89 % of control | [16] 92 % of control

Cc1cc(NC(=O)NCc2ccc([N+](=O)[O-])cc2Cl)ccc1S(=O)(=O)F
inactive: [11] 98 % of control | [17] 98 % of control | [18] 106 % of control

N=C(N)c1cccc(CCCCc2ccc(N)cc2)c1
inactive: [11] 94 % of control | [17] 99 % of control

CC(=O)Nc1ccc(NC(=O)NCCCCCCNC(=O)Nc2ccc(NC(C)=O)cc2)cc1
inactive: [14] 102 % of control | [15] 98 % of control | [16] 100 % of control

CC(C)Cc1ccccc1
inactive: [14] 106 % of control | [11] 110 % of control | [15] 100 % of control | [17] 96 % of control | [16] 122 % of control | [18] 96 % of control

O=c1ccc2c(Cl)cc(CN(CCO)CCO)cc2[nH]1
inactive: dose: 75.0 mg/kg/injection, schedule: Q01DX001 (ip), vehicle: saline 102 % of control | dose: 75.0 mg/kg/injection, schedule: Q04DX003 (ip), vehicle: saline 97 % of control | dose: 150.0 mg/kg/injection, schedule: Q01DX001 (ip), vehicle: saline 102 % of control | dose: 150.0 mg/kg/injection, schedule: Q04DX003 (ip), vehicle: saline 92 % of control | dose: 300.0 mg/kg/injection, schedule: Q01DX001 (ip), vehicle: saline 108 % of control

COc1ccc(-n2c(=O)c(N=Nc3ccccc3C)c(O)n(-c3ccccc3Cl)c2=S)cc1
inactive: [12] 107 % of control | [13] 94 % of control | [19] 102 % of control

CCOC(=O)COc1c(C(=O)OC)cc([N+](=O)[O-])cc1[N+](=O)[O-]
inactive: [10] 104 % of control | dose: 200.0 mg/kg/injection, schedule: Q04DX002 (ip), vehicle: saline with Tween-80 97 % of control | dose: 400.0 mg/kg/injection, schedule: Q04DX002 (ip), vehicle: saline with Tween-80 90 % of control

O=C(COc1ccc(Cl)cc1Cl)OCCBr
inactive: dose: 100.0 mg/kg/injection, schedule: Q04DX002 (ip), vehicle: other 96 % of control | dose: 200.0 mg/kg/injection, schedule: Q04DX002 (ip), vehicle: other 118 % of control | dose: 400.0 mg/kg/injection, schedule: Q04DX002 (ip), vehicle: other 93 % of control

O=C(OCC(OC(=O)c1ccccc1)C1OCC(OC(=O)c2ccccc2)C1OC(=O)c1ccccc1)c1ccccc1 (stereo unspecified)
inactive: [1] 88 % of control | [2] 88 % of control | [3] 88 % of control

CN(C)CCCN=NNc1nc[nH]c1C(N)=O
inactive: [12] 95 % of control | [11] 108 % of control | [13] 91 % of control | [17] 92 % of control | [19] 95 % of control

O=S(=O)(Nc1ncccn1)c1ccc(N=NSC2=NC=NC3=NC=NC32)cc1 (stereo unspecified)
inactive: dose: 100.0 mg/kg/injection, schedule: Q01DX001 (ip), vehicle: other 104 % of control | dose: 200.0 mg/kg/injection, schedule: Q01DX001 (ip), vehicle: other 124 % of control | dose: 400.0 mg/kg/injection, schedule: Q01DX001 (ip), vehicle: other 106 % of control

N#CC12C(=N)CCC1C1C=CC2C1 (stereo unspecified)
inactive: dose: 6.25 mg/kg/injection, schedule: Q01DX009 (ip), vehicle: Klucel (hydroxypropylcellulose) (HPC) 100 % of control | dose: 12.5 mg/kg/injection, schedule: Q01DX009 (ip), vehicle: Klucel (hydroxypropylcellulose) (HPC) 101 % of control | [11] 89 % of control | [17] 93 % of control

O=C(CCCN1CCC2(CC1)C(=O)NCN2c1ccccc1)c1cccs1
inactive: dose: 3.13 mg/kg/injection, schedule: Q01DX009 (ip), vehicle: saline with Tween-80 95 % of control | dose: 6.25 mg/kg/injection, schedule: Q01DX009 (ip), vehicle: saline with Tween-80 94 % of control | dose: 6.25 mg/kg/injection, schedule: Q04DX003 (ip), vehicle: saline with Tween-80 102 % of control | dose: 12.5 mg/kg/injection, schedule: Q01DX009 (ip), vehicle: saline with Tween-80 89 % of control | dose: 12.5 mg/kg/injection, schedule: Q04DX003 (ip), vehicle: saline with Tween-80 95 % of control

From PubChem BioAssay AID248 (DTP/NCI, 2004)
